Biological target: T1, Serpin H1 (Mus musculus, UniProt P19324)
T1 sequence (P19324 whole entry): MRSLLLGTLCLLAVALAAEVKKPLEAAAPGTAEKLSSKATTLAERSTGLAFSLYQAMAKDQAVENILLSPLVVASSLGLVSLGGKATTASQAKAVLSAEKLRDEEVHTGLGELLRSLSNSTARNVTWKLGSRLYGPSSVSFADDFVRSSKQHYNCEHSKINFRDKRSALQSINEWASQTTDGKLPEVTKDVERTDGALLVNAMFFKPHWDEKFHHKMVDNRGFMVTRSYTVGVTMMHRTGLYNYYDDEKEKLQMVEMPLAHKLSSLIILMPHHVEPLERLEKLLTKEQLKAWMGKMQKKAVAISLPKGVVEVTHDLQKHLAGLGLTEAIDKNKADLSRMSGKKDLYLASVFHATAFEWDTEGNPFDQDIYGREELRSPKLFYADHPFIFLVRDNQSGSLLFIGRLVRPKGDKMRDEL
Experiment: Binding affinity to mouse recombinant HSP47 expressed in Escherichia coli JM109 after 10 mins by surface plasmon resonance assay

IC50: > 100 µM
Structure (SMILES): N=C(N)NCCC[C@H](NC(=O)[C@@H]1CCCN1C(=O)CNC(=O)[C@H](CCC(=O)O)NC(=O)[C@@H]1CCCN1C(=O)CNC(=O)[C@@H]1CCCN1C(=O)[C@@H]1CCCN1C(=O)CNC(=O)[C@@H]1C[C@@H](O)CN1C(=O)[C@@H]1CCCN1)C(=O)NCC(=O)N1CCC[C@H]1C(=O)N[C@@H](CCCNC(=N)N)C(=O)NCC(=O)N1CCC[C@H]1C(=O)N1CCC[C@H]1C(=O)NCC(=O)N1CCC[C@H]1C(=O)N1CCC[C@H]1C(=O)NCC(=O)N1CCC[C@H]1C(=O)N1CCC[C@H]1C(=O)NCC(=O)N1CCC[C@H]1C(=O)N1CCC[C@H]1C(=O)NCC(N)=O

Reference: ChEMBL document CHEMBL1165939, “A structure-activity relationship study elucidating the mechanism of sequence-specific collagen recognition by the chaperone HSP47” (Bioorg Med Chem, 2010)
